According to patent US9718788B2, “Heteroaryl compounds useful as inhibitors of E1 activating enzymes” (MILLENNIUM PHARMACEUTICALS, INC., priority 2006, dated 2017):

Biological target: T1, recombinant human NAE enzyme (Homo sapiens, UniProt Q8TBC4)
T1 construct: His (N); made in house; host or cells: Sf9 insect cells (baculovirus, Bac-to-Bac)
T1 sequence (Q8TBC4 1-463): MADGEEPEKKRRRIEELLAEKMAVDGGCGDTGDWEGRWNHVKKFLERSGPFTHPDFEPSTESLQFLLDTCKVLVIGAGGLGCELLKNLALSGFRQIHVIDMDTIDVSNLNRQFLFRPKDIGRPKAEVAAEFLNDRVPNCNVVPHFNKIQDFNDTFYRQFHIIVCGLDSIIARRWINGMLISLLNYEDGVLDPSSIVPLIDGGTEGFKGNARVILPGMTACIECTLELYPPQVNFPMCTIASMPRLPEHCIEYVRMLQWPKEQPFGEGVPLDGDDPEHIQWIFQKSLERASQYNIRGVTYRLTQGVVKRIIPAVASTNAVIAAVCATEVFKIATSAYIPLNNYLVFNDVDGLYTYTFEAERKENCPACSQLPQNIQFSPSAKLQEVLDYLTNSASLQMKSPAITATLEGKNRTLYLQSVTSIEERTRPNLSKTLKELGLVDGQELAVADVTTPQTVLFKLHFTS
T1 sequence (Q13564 1-534 partner): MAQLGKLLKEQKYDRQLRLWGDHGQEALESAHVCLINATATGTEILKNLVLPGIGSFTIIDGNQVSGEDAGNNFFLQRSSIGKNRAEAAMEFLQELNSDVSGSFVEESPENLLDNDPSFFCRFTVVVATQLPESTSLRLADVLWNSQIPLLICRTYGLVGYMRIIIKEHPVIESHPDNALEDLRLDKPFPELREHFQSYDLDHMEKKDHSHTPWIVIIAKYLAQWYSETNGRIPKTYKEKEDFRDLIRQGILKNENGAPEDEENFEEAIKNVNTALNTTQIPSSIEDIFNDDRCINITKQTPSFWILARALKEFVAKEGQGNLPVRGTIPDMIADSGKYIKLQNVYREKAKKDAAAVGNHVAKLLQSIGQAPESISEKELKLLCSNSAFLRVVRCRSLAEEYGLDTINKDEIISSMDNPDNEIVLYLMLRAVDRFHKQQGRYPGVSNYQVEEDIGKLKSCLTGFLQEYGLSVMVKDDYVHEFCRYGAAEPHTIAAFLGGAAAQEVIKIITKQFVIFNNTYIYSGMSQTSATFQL
Experiment: Nedd8-Activating Enzyme (NAE) HTRF Assay
Assay type: biochemical
Settings: 20 μM ATP, bound given in nM
Outline: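 Recombinant human NAE (NAEα/His-NAEβ from Sf9 cells) at 0.20 nM with 20 μM ATP, 0.01 μM Ubc12-GST and 0.075 μM Nedd8-Flag in HEPES pH 7.5, 105 min at 24° C. EDTA stop; Eu-anti-FLAG/APC-anti-GST HTRF read after 1 h.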

Row | IC50 | Compound
1 | ≤ 500 nM | NS(=O)(=O)OC[C@@H]1C[C@@H](Nc2ncnc3[nH]c(-c4ccc(Cl)cc4)nc23)C[C@@H]1O [Compound I-111, ((1S,2S,4R)-4-{[8-(4-chlorophenyl)-9H-purin-6-yl]amino}-2-hydroxycyclopentyl)methyl sulfamate]
2 | ≤ 500 nM | NS(=O)(=O)OC[C@@H]1C[C@@H](Nc2ncnc3[nH]c(-c4cccc5ccccc45)nc23)C[C@@H]1O [Compound I-49, ((1S,2S,4R)-2-hydroxy-4-{[8-(1-naphthyl)-9H-purin-6-yl]amino}cyclopentyl)-methyl sulfamate]
3 | ≤ 500 nM | NS(=O)(=O)OC[C@@H]1C[C@@H](Nc2c(Cl)cnc3[nH]c(-c4cccc5ccccc45)nc23)C[C@@H]1O [Compound I-56, ((1S,2S,4R)-4-{[6-chloro-2-(1-naphthyl)-3H-imidazo[4,5-b]pyridin-7-yl]amino}-2-hydroxycyclopentyl)methyl sulfamate]
4 | ≤ 500 nM | NS(=O)(=O)OC[C@H]1C[C@@H](Nc2cc(N[C@H]3CCc4cc(Cl)ccc43)ncn2)[C@H](O)[C@@H]1O [Compound I-19, {(1R,2R,3S,4R)-4-[(6-{[(1S)-5-chloro-2,3-dihydro-1H-inden-1-yl]amino}-pyrimidin-4-yl)-amino]-2,3-dihydroxycyclopentyl}methyl sulfamate]
5 | > 500 nM | NS(=O)(=O)OC[C@H]1C[C@@H](Nc2cc(CCc3ccccc3)ncn2)[C@H](O)[C@@H]1O [Compound I-86, ((1R,2R,3S,4R)-2,3-dihydroxy-4-{[6-(2-phenylethyl)pyrimidin-4-yl]amino}cyclopentyl)-methyl sulfamate]
6 | ≤ 500 nM | NS(=O)(=O)OC[C@H]1C[C@@H](Nc2ncnc(N[C@H]3CCc4ccccc43)n2)[C@H](O)[C@@H]1O [Compound I-26, [(1R,2R,3S,4R)-4-({4-[(1S)-2,3-dihydro-1H-inden-1-ylamino]-1,3,5-triazin-2-yl}-amino)-2,3-dihydroxycyclopentyl]methyl sulfamate]
7 | ≤ 500 nM | NS(=O)(=O)OC[C@@H]1C[C@@H](Nc2cc(N[C@H]3CCc4ccccc43)ncn2)C[C@@H]1O [Compound I-5, [(1S,2S,4R)-4-({6-[(1S)-2,3-dihydro-1H-inden-1-ylamino]pyrimidin-4-yl}amino)-2-hydroxycyclopentyl]methyl sulfamate]
8 | ≤ 500 nM | NS(=O)(=O)OC[C@@H]1C[C@@H](Nc2ncnc3nc(-c4cccc5cccnc45)[nH]c23)C[C@@H]1O [Compound I-84, {(1S,2S,4R)-2-hydroxy-4-[(8-quinolin-8-yl-7H-purin-6-yl)amino]cyclopentyl}methyl sulfamate]
9 | > 500 nM | COc1ccc2c(c1)[C@H](Nc1cc(O[C@@H]3C[C@@H](COS(N)(=O)=O)[C@@H](O)C3)ncn1)[C@H](OC)CC2 [Compound I-148, {(1S,2S,4R)-4-[(6-{[(1S,2R)-2,7-dimethoxy-1,2,3,4-tetrahydronaphthalen-1-yl]amino}-pyrimidin-4-yl)oxy]-2-hydroxycyclopentyl}methyl sulfamate]
10 | ≤ 500 nM | NS(=O)(=O)OC[C@H]1C[C@@H](Nc2cc(N[C@H]3CCc4ccccc43)ncn2)[C@H](O)[C@@H]1O [Compound I-29, [(1R,2R,3S,4R)-4-({6-[(1S)-2,3-dihydro-1H-inden-1-ylamino]pyrimidin-4-yl}-amino)-2,3-dihydroxycyclopentyl]methyl sulfamate]
11 | > 500 nM | NS(=O)(=O)OC[C@H]1C[C@@H](NC(=O)c2cccnc2)[C@H](O)[C@@H]1O [Compound I-16, {(1R,2R,3S,4R)-2,3-dihydroxy-4-[(pyridin-3-ylcarbonyl)amino]cyclopentyl}-methyl sulfamate]
12 | ≤ 500 nM | NS(=O)(=O)OC[C@H]1C[C@@H](Nc2cc(N[C@H]3CCc4c(Cl)cccc43)ncn2)[C@H](O)[C@@H]1O [Compound I-24, {(1R,2R,3S,4R)-4-[(6-{[(1S)-4-chloro-2,3-dihydro-1H-inden-1-yl]amino}-pyrimidin-4-yl)-amino]-2,3-dihydroxycyclopentyl}methyl sulfamate]
13 | ≤ 500 nM | CO[C@H]1Cc2ccccc2[C@H]1Nc1ncnc(O[C@@H]2C[C@@H](COS(N)(=O)=O)[C@@H](O)C2)c1F [Compound I-83, {(1S,2S,4R)-4-[(5-fluoro-6-{[(1R,2S)-2-methoxy-2,3-dihydro-1H-inden-1-yl]amino}pyrimidin-4-yl)oxy]-2-hydroxycyclopentyl}methyl sulfamate]
14 | ≤ 500 nM | CC1(C)C[C@H](Nc2cc(O[C@@H]3C[C@@H](COS(N)(=O)=O)[C@@H](O)C3)ncn2)c2ccccc21 [Compound I-124, {(1S,2S,4R)-4-[(6-{[(1S)-3,3-dimethyl-2,3-dihydro-1H-inden-1-yl]amino}pyrimidin-4-yl)oxy]-2-hydroxycyclopentyl}methyl sulfamate]
15 | ≤ 500 nM | NS(=O)(=O)OC[C@@H]1C[C@@H](Nc2ncnc3[nH]c(-c4cccc5c4CCCC5)nc23)C[C@@H]1O [Compound I-126, ((1S,2S,4R)-2-hydroxy-4-{[8-(5,6,7,8-tetrahydronaphthalen-1-yl)-9H-purin-6-yl]amino}cyclopentyl)methyl sulfamate]
16 | ≤ 500 nM | CO[C@H]1Cc2ccccc2[C@H]1Nc1cc(N[C@@H]2C[C@@H](COS(N)(=O)=O)[C@@H](O)C2)ncn1 [Compound I-47, {(1S,2S,4R)-2-hydroxy-4-[(6-{[(1R,2S)-2-methoxy-2,3-dihydro-1H-inden-1-yl]-amino}pyrimidin-4-yl)amino]cyclopentyl}methyl sulfamate]
17 | ≤ 500 nM | Cc1cccc(S(=O)(=O)c2nc3c(O[C@@H]4C[C@@H](COS(N)(=O)=O)[C@@H](O)C4)ncnc3[nH]2)c1 [Compound I-101, [(1S,2S,4R)-2-hydroxy-4-({8-[(3-methylphenyl)sulfonyl]-9H-purin-6-yl}oxy)cyclopentyl]methyl sulfamate]
18 | ≤ 500 nM | NS(=O)(=O)OC[C@@H]1C[C@@H](Nc2ncnc3[nH]c(-c4cccc(Cl)c4)nc23)C[C@@H]1O [Compound I-60, ((1S,2S,4R)-4-{[8-(3-chlorophenyl)-9H-purin-6-yl]amino}-2-hydroxycyclopentyl)methyl sulfamate]
19 | ≤ 500 nM | Cn1c(-c2ccccc2)nc2c(N[C@@H]3C[C@@H](COS(N)(=O)=O)[C@@H](O)C3)ncnc21 [Compound I-130, {(1S,2S,4R)-2-hydroxy-4-[(9-methyl-8-phenyl-9H-purin-6-yl)amino]cyclopentyl}methyl sulfamate]
20 | ≤ 500 nM | NS(=O)(=O)OC[C@H]1C[C@@H](Nc2cc(N[C@H]3CCc4ccccc43)ncn2)C[C@@H]1O [Compound I-25, [(1R,2S,4R)-4-({6-[(1S)-2,3-dihydro-1H-inden-1-ylamino]pyrimidin-4-yl}amino)-2-hydroxycyclopentyl]methyl sulfamate]
21 | ≤ 500 nM | CN(C)c1ccccc1-c1nc2c(N[C@@H]3C[C@@H](COS(N)(=O)=O)[C@@H](O)C3)ncnc2[nH]1 [Compound I-137, [(1S,2S,4R)-4-({8-[2-(dimethylamino)phenyl]-9H-purin-6-yl}amino)-2-hydroxycyclopentyl]methyl sulfamate]
22 | > 500 nM | NS(=O)(=O)OC[C@H]1C[C@@H](Nc2ccnc(NCC3CCCCC3)n2)[C@H](O)[C@@H]1O [Compound I-4, [(1R,2R,3S,4R)-4-({2-[(cyclohexylmethyl)amino]pyrimidin-4-yl}amino)-2,3-dihydroxycyclopentyl]methyl sulfamate]
23 | > 500 nM | NS(=O)(=O)OC[C@H]1CC[C@H](Oc2ncnc3[nH]c(-c4cccc5ccccc45)nc23)C1 [Compound I-152, ((1S,3S)-3-{[8-(1-naphthyl)-9H-purin-6-yl]oxy}cyclopentyl)methyl sulfamate]
24 | ≤ 500 nM | CN(c1ncnc2[nH]c(-c3cccc4ccccc34)nc12)[C@@H]1C[C@@H](COS(N)(=O)=O)[C@@H](O)C1 [Compound I-46, ((1S,2S,4R)-2-hydroxy-4-{methyl[8-(1-naphthyl)-9H-purin-6-yl]amino}-cyclopentyl)methyl sulfamate]

Same assay, conditions: 20 μM ATP, bound given in μM

Row | IC50 | Compound
25 | < 10000 nM | NS(=O)(=O)OC[C@H]1C[C@@H](Nc2cc(CCc3ccccc3)ncn2)[C@H](O)[C@@H]1O [Compound I-86, ((1R,2R,3S,4R)-2,3-dihydroxy-4-{[6-(2-phenylethyl)pyrimidin-4-yl]amino}cyclopentyl)-methyl sulfamate]
26 | < 10000 nM | COc1ccc2c(c1)[C@H](Nc1cc(O[C@@H]3C[C@@H](COS(N)(=O)=O)[C@@H](O)C3)ncn1)[C@H](OC)CC2 [Compound I-148, {(1S,2S,4R)-4-[(6-{[(1S,2R)-2,7-dimethoxy-1,2,3,4-tetrahydronaphthalen-1-yl]amino}-pyrimidin-4-yl)oxy]-2-hydroxycyclopentyl}methyl sulfamate]
27 | < 10000 nM | NS(=O)(=O)OC[C@H]1C[C@@H](NC(=O)c2cccnc2)[C@H](O)[C@@H]1O [Compound I-16, {(1R,2R,3S,4R)-2,3-dihydroxy-4-[(pyridin-3-ylcarbonyl)amino]cyclopentyl}-methyl sulfamate]
28 | > 10000 nM | CN(Cc1ccccc1)c1nccc(N[C@@H]2C[C@H](COS(N)(=O)=O)[C@@H](O)[C@H]2O)n1 [Compound I-20, [(1R,2R,3S,4R)-4-({2-[benzyl(methyl)amino]pyrimidin-4-yl}amino)-2,3-dihydroxycyclopentyl]methyl sulfamate]
29 | < 10000 nM | NS(=O)(=O)OC[C@H]1C[C@@H](Nc2ccnc(NCC3CCCCC3)n2)[C@H](O)[C@@H]1O [Compound I-4, [(1R,2R,3S,4R)-4-({2-[(cyclohexylmethyl)amino]pyrimidin-4-yl}amino)-2,3-dihydroxycyclopentyl]methyl sulfamate]
30 | < 10000 nM | NS(=O)(=O)OC[C@H]1CC[C@H](Oc2ncnc3[nH]c(-c4cccc5ccccc45)nc23)C1 [Compound I-152, ((1S,3S)-3-{[8-(1-naphthyl)-9H-purin-6-yl]oxy}cyclopentyl)methyl sulfamate]
